Assay results as given in patent US20230219965A1 (KSQ Therapeutics, Inc., priority 2020, published 2023).
Where two headings read alike, the source gives them in different places.

Legend:
USP1/UAF1 enzyme = USP1/UAF1 enzyme (Homo sapiens, UniProt O94782); experiment: USP1/UAF1 deubiquitination assay (ubiquitin-rhodamine 110 substrate); format: biochemical; details: read-out: USP1 IC50 (Ub-Rho)
Procedure, shortened: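 0.05 nM USP1/UAF1 was preincubated 10 min with compounds (dose response from 10 μM) in 50 mM Tris-HCl pH 7.8, 0.5 mM EDTA, 0.01% BSA, 1 mM DTT, 0.01% Tween-20. 150 nM ubiquitin-rhodamine 110 started the reaction, read kinetically 30 min at Ex480/Em540; IC50 by four-parameter fit versus no-enzyme and DMSO controls.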

[1] = system: Ub-PCNA levels in the nucleus of ES2 cells (USP1 activity); experiment: ES2 Ub-PCNA immunofluorescence (IF) assay; format: cell-based; details: Homo sapiens, ES-2; ES2 cells, 3 hours, Ub-PCNA immunofluorescence; read-out: USP1 IC50 (Ub-PCNA)
Procedure, shortened: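 Cells plated overnight, then compound-treated for 3 h at 37° C (0.3% DMSO final), methanol-fixed and stained with anti-Ub-PCNA plus DAPI. Per-nucleus Ub-PCNA intensity imaged; cells above the 95% cutoff of untreated wells counted as positive, and percent positive cells used to derive AC50.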

[2] = ADME solubility determination in PBS at pH 2.0 and pH 7.4; format: physicochemical; details: phosphate buffered saline, 25 °C, thermodynamic from solid
Procedure, shortened: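 Dried 10 mM DMSO stock residues taken up in PBS pH 7.4 or pH 2.0, shaken 24 h at 25° C. After centrifugation, supernatant quantified by LC-MS/MS against a standard of known concentration, with a dilution factor applied.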

[3] = Liver microsomal metabolic stability, rat liver microsomes (RLM); details: rat, liver microsomes, t1/2 (min) in RLM, 1 μM compound, 1 mg/mL microsomes, NADPH
[4] = Liver microsomal metabolic stability, human liver microsomes (HLM); details: human, liver microsomes
[5] = pH 2, aqueous buffer, PBS pH 2.0, 25° C., read-out: Solubility at pH 2.0
[6] = pH 7.4, aqueous buffer, PBS pH 7.4, 25° C., read-out: Solubility at pH 7.4

Chain of USP1/UAF1 enzyme (O94782 whole entry): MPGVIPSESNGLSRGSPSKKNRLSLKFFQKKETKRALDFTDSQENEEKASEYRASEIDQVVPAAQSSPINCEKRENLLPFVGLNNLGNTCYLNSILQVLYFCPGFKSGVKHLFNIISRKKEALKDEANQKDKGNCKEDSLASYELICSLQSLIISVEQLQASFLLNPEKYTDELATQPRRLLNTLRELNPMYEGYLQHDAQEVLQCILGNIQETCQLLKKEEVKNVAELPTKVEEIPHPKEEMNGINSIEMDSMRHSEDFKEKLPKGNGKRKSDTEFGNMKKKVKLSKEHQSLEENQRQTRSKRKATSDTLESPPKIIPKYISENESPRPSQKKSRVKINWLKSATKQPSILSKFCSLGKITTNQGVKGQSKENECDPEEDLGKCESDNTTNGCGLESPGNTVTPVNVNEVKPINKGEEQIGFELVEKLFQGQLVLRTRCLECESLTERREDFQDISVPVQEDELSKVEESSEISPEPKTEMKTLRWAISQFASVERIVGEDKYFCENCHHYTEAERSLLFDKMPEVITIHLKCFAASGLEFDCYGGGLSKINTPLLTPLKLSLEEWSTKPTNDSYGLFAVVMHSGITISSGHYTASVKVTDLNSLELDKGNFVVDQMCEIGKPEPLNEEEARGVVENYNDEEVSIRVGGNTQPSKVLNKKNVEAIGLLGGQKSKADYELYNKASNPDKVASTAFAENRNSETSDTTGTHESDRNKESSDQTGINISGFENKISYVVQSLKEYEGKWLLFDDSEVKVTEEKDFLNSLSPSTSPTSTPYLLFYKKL
Chain of USP1/UAF1 enzyme (Q8TAF3 whole entry partner): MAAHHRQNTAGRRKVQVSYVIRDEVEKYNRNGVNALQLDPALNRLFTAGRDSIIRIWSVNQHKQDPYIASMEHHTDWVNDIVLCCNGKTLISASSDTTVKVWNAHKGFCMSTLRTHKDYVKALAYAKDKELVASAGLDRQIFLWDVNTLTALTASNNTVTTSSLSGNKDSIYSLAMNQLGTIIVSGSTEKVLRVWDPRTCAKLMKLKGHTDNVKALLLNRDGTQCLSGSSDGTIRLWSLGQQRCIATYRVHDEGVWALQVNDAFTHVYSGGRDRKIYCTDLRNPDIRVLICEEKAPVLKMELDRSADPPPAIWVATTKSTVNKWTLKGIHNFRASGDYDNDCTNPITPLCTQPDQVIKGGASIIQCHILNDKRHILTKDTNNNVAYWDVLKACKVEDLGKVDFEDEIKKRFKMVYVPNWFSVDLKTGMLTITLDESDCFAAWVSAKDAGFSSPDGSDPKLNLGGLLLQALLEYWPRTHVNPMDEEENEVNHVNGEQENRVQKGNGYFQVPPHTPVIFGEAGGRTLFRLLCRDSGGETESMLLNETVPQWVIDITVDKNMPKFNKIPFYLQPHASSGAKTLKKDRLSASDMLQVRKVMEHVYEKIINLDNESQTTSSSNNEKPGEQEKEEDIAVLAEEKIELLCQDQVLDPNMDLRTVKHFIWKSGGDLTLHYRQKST

IC50 (USP1/UAF1 enzyme) [µM] | IC50 [1] [µM] | solubility at 24 h [2, 5] [µM] | solubility at 24 h [2, 6] [µM] | half-life at 1 μM [3] [min] | half-life at 1 μM [4] [min] | Structure (SMILES)
< 0.1 | < 0.1 | ≥ 10 | < 10 | < 25 | < 25 | CCn1cc(C(F)(F)F)nc1-c1ccc(CC2c3cc(-c4c(Cl)cnn4C(C)C)nn3CCN2C)cc1 (stereo not drawn) [Example 360, 2-(4-chloro-1-isopropyl-1H-pyrazol-5-yl)-4-(4-(1-ethyl-4-(trifluoromethyl)-1H-imidazol-2-yl)benzyl)-5-methyl-4,5,6,7-tetrahydropyrazolo[1,5-α]pyrazine]
< 0.1 | 0.1 to 0.5 | ≥ 10 | ≥ 10 | < 25 | < 25 | CCn1cc(C(F)(F)F)nc1-c1ccc(CC2c3cc(-c4c(OC)ncnc4C4CC4)nn3CCN2C)cc1 (stereo not drawn) [Example 362, 2-(4-cyclopropyl-6-methoxypyrimidin-5-yl)-4-(4-(1-ethyl-4-(trifluoromethyl)-1H-imidazol-2-yl)benzyl)-5-methyl-4,5,6,7-tetrahydropyrazolo[1,5-a]pyrazine]
< 0.1 | < 0.1 | < 10 | < 10 | > 25 | > 25 | COc1c(CN2C(=O)CCn3nc(-c4c(OC(F)F)ncnc4C4CC4)nc32)ccc(-c2nc(C(F)(F)F)cn2C(C)C)c1F [Example 365, 2-(4-cyclopropyl-6-(difluoromethoxy)pyrimidin-5-yl)-4-(3-fluoro-4-(1-isopropyl-4-(trifluoromethyl)-1H-imidazol-2-yl)-2-methoxybenzyl)-6,7-dihydro-[1,2,4]triazolo[1,5-a]pyrimidin-5(4H)-one]
< 0.1 | < 0.1 | < 10 | < 10 | > 25 | > 25 | CCn1cc(C(F)(F)F)nc1-c1ccc(CN2C(=O)CCn3nc(-c4c(OC(F)F)ncnc4C4CC4)nc32)cc1F [Example 370, 2-(4-cyclopropyl-6-(difluoromethoxy)pyrimidin-5-yl)-4-(4-(1-ethyl-4-(trifluoromethyl)-1H-imidazol-2-yl)-3-fluorobenzyl)-6,7-dihydro-[1,2,4]triazolo[1,5-a]pyrimidin-5(4H)-one]
< 0.1 | < 0.1 | < 10 | < 10 | < 25 | < 25 | CC(C)n1cc(C(F)(F)F)nc1-c1ccc(C(N2CCCn3nc(-c4c(Cl)cnn4C(C)C)cc32)C(F)(F)F)cc1F (stereo not drawn) [Example 371, 2-(4-chloro-1-isopropyl-1H-pyrazol-5-yl)-4-(2,2,2-trifluoro-1-(3-fluoro-4-(1-isopropyl-4-(trifluoromethyl)-1H-imidazol-2-yl)phenyl)ethyl)-4,5,6,7-tetrahydropyrazolo[1,5-α]pyrimidine]

Structure (SMILES) | IC50 (USP1/UAF1 enzyme) [µM] | IC50 [1] [µM] | solubility at 24 h [2, 5] [µM] | solubility at 24 h [2, 6] [µM] | half-life at 1 μM [3] [min] | half-life at 1 μM [4] [min]
CCn1cc(C(F)(F)F)nc1-c1ccc(CN2C(=O)CCn3nc(-c4c(OC(F)F)ncnc4C4CC4)nc32)cc1 [Example 364, 2-(4-cyclopropyl-6-(difluoromethoxy)pyrimidin-5-yl)-4-(4-(1-ethyl-4-(trifluoromethyl)-1H-imidazol-2-yl)benzyl)-6,7-dihydro-[1,2,4]triazolo[1,5-α]pyrimidin-5(4H)-one] | < 0.1 | < 0.1 | < 10 | < 10 | > 25 | > 25
